Test results as given in ChEMBL document CHEMBL3046846, “Synthesis of N-Alkyl-2, 3-dimethyl-5-[N-(5-halo-2-methylphenyl)carbamoyl]-6-pyrazinecarboxamides and Their Herbicidal Activity” (J Pestic Sci, 1997).

How the values were obtained:
Glycine max [1] = test: Herbicidal activity against Glycine max (soybean) at 500 g/ha after 2 weeks; format: organism-based; conditions: in vivo, 336 h
Abutilon theophrasti [2] = test: Herbicidal activity against Abutilon theophrasti (velvetleaf) at 250 g/ha after 2 weeks; format: functional
Veronica persica [3] = test: Herbicidal activity against Veronica persica at 250 g/ha after 2 weeks; format: functional
Avena fatua [4] = test: Herbicidal activity against Avena fatua at 250 g/ha after 2 weeks; format: functional
Glycine max [5] = test: Herbicidal activity against Glycine max (soybean) at 5000 g/ha after 2 weeks; format: organism-based; conditions: in vivo, 336 h
Abutilon theophrasti [6] = test: Herbicidal activity against Abutilon theophrasti (velvetleaf) at 500 g/ha after 2 weeks; format: functional
Echinochloa crus-galli [7] = test: Herbicidal activity against Echinochloa crus-galli (barnyard grass) at 500 g/ha after 2 weeks; format: functional
Avena fatua [8] = test: Herbicidal activity against Avena fatua at 5000 g/ha after 2 weeks; format: functional
Galium spurium [9] = test: Herbicidal activity against Galium spurium var. echinospermon (Wally.) Hayek at 500 g/ha after 2 weeks; format: functional
Xanthium strumarium [10] = test: Herbicidal activity against Xanthium strumarium (cocklebur) 250 g/ha after 2 weeks; format: functional
Galium spurium [11] = test: Herbicidal activity against Galium spurium var. echinospermon (Wally.) Hayek at 5000 g/ha after 2 weeks; format: functional
Xanthium strumarium [12] = test: Herbicidal activity against Xanthium strumarium (cocklebur) 5000 g/ha after 2 weeks; format: functional
Veronica persica [13] = test: Herbicidal activity against Veronica persica at 500 g/ha after 2 weeks; format: functional
Glycine max [14] = test: Herbicidal activity against Glycine max (soybean) at 250 g/ha after 2 weeks; format: organism-based; conditions: in vivo, 336 h
Abutilon theophrasti [15] = test: Herbicidal activity against Abutilon theophrasti (velvetleaf) at 5000 g/ha after 2 weeks; format: functional
Veronica persica [16] = test: Herbicidal activity against Veronica persica at 5000 g/ha after 2 weeks; format: functional
Triticum aestivum [17] = test: Herbicidal activity against Triticum aestivum (wheat) at 5000 g/ha after 2 weeks; format: ADME, organism-based; conditions: in vivo, 336 h
Echinochloa crus-galli [18] = test: Herbicidal activity against Echinochloa crus-galli (barnyard grass) at 5000 g/ha after 2 weeks; format: functional
Triticum aestivum [19] = test: Herbicidal activity against Triticum aestivum (wheat) at 250 g/ha after 2 weeks; format: organism-based; conditions: in vivo, 336 h
Triticum aestivum [20] = test: Herbicidal activity against Triticum aestivum (wheat) at 500 g/ha after 2 weeks; format: ADME, organism-based; conditions: in vivo, 336 h
Xanthium strumarium [21] = test: Herbicidal activity against Xanthium strumarium (cocklebur) 500 g/ha after 2 weeks; format: functional
Echinochloa crus-galli [22] = test: Herbicidal activity against Echinochloa crus-galli (barnyard grass) at 250 g/ha after 2 weeks; format: functional
Avena fatua [23] = test: Herbicidal activity against Avena fatua at 500 g/ha after 2 weeks; format: functional
Galium spurium [24] = test: Herbicidal activity against Galium spurium var. echinospermon (Wally.) Hayek at 250 g/ha after 2 weeks; format: functional
Galium spurium [25] = test: Herbicidal activity against Galium spurium var. echinospermon (Wally.) Hayek at 200 g/ha after 2 weeks; format: functional
Echinochloa crus-galli [26] = test: Herbicidal activity against Echinochloa crus-galli (barnyard grass) at 200 g/ha after 2 weeks; format: functional
Triticum aestivum [27] = test: Herbicidal activity against Triticum aestivum (wheat) at 200 g/ha after 2 weeks; format: organism-based; conditions: in vivo, 336 h
Avena fatua [28] = test: Herbicidal activity against Avena fatua at 200 g/ha after 2 weeks; format: functional
Xanthium strumarium [29] = test: Herbicidal activity against Xanthium strumarium (cocklebur) 200 g/ha after 2 weeks; format: functional
Abutilon theophrasti [30] = test: Herbicidal activity against Abutilon theophrasti (velvetleaf) at 200 g/ha after 2 weeks; format: functional
Veronica persica [31] = test: Herbicidal activity against Veronica persica at 200 g/ha after 2 weeks; format: functional
Glycine max [32] = test: Herbicidal activity against Glycine max (soybean) at 200 g/ha after 2 weeks; format: organism-based; conditions: in vivo, 336 h

| Structure (SMILES) | Activity (Glycine max [1]) | Activity (Abutilon theophrasti [2]) | Activity (Veronica persica [3]) | Activity (Avena fatua [4]) | Activity (Glycine max [5]) | Activity (Abutilon theophrasti [6]) | Activity (Echinochloa crus-galli [7]) | Activity (Avena fatua [8]) | Activity (Galium spurium [9]) | Activity (Xanthium strumarium [10]) | Activity (Galium spurium [11]) | Activity (Xanthium strumarium [12]) | Activity (Veronica persica [13]) | Activity (Glycine max [14]) | Activity (Abutilon theophrasti [15]) | Activity (Veronica persica [16]) | Activity (Triticum aestivum [17]) | Activity (Echinochloa crus-galli [18]) | Activity (Triticum aestivum [19]) | Activity (Triticum aestivum [20]) | also measured |
| --- | --- | --- | --- | --- | --- | --- | --- | --- | --- | --- | --- | --- | --- | --- | --- | --- | --- | --- | --- | --- | --- |
| CC[C@H](C)NC(=O)c1nc(C)c(C)nc1C(=O)Nc1cc(F)ccc1C | < 10% | <10% | 70% | <10% | < 10% | <10% | <10% | 50% | <10% | <10% | 95% | 95% | 70% | < 10% | 70% | 95% | 30% | 70% | < 10% | < 10% | Activity (Xanthium strumarium [21]): <10%; Activity (Echinochloa crus-galli [22]): <10%; Activity (Avena fatua [23]): <10%; Activity (Galium spurium [24]): <10% |
| CCCCNC(=O)c1nc(C)c(C)nc1C(=O)Nc1cc(Cl)ccc1C | < 10% | <10% | 10% | <10% | < 10% | <10% | <10% | <10% | <10% | <10% | 30% | 50% | 50% | < 10% | 95% | 95% | 30% | 50% | < 10% | < 10% | Activity (Xanthium strumarium [21]): <10%; Activity (Echinochloa crus-galli [22]): <10%; Activity (Avena fatua [23]): <10%; Activity (Galium spurium [24]): <10% |
| CCNC(=O)c1nc(C)c(C)nc1C(=O)Nc1cc(Cl)ccc1C | < 10% | <10% | <10% | <10% | < 10% | <10% | <10% | <10% | <10% | <10% | 30% | 95% | 70% | < 10% | 30% | 95% | 10% | 50% | < 10% | < 10% | Activity (Xanthium strumarium [21]): 10%; Activity (Echinochloa crus-galli [22]): <10%; Activity (Avena fatua [23]): <10%; Activity (Galium spurium [24]): <10% |
| CS(=O)(=O)NC(=O)c1cc(Oc2ccc(C(F)(F)F)cc2Cl)ccc1[N+](=O)[O-] [FOMESAFEN] | – | – | – | – | – | – | – | – | – | – | – | – | – | – | – | – | – | – | – | – | Activity (Galium spurium [25]): 70%; Activity (Echinochloa crus-galli [26]): 30%; Activity (Triticum aestivum [27]): 30%; Activity (Avena fatua [28]): <10%; Activity (Xanthium strumarium [29]): 50%; Activity (Abutilon theophrasti [30]): 95%; Activity (Veronica persica [31]): 95%; Activity (Glycine max [32]): < 10% |
| CC[C@H](C)NC(=O)c1nc(C)c(C)nc1C(=O)Nc1cc(Cl)ccc1C | < 10% | <10% | 95% | <10% | < 10% | <10% | <10% | 30% | <10% | <10% | 50% | 95% | 95% | < 10% | 95% | 95% | 30% | 95% | < 10% | < 10% | Activity (Xanthium strumarium [21]): <10%; Activity (Echinochloa crus-galli [22]): <10%; Activity (Avena fatua [23]): <10%; Activity (Galium spurium [24]): <10% |
